Data: PubChem BioAssay AID624443 (The Scripps Research Institute Molecular Screening Center, 2012)
Activity calls are given as the source filed them.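 The calls were made as follows: active = inhibition of 30% or more at 50 µM, though no compound was called active; inactive = inhibition below 30% at 50 µM.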

Each compound was assayed against Serine/threonine-protein phosphatase 2A catalytic subunit alpha isoform (Bos taurus) (UniProt P67774) (assay: PP2A phosphatase inhibition, late-stage follow-up, selectivity assay for PP5 inhibitor project, biochemical, bovine brain PP2A, 33P-phosphohistone, single concentration, round 5 (AID 624443)). Conditions: purified bovine PP2A, 33P-phosphohistone dephosphorylation, scintillation; at 50 µM; hits give high values.
Serine/threonine-protein phosphatase 2A catalytic subunit alpha isoform (Bos taurus), sequence (P67774 whole entry, looked up, canonical isoform): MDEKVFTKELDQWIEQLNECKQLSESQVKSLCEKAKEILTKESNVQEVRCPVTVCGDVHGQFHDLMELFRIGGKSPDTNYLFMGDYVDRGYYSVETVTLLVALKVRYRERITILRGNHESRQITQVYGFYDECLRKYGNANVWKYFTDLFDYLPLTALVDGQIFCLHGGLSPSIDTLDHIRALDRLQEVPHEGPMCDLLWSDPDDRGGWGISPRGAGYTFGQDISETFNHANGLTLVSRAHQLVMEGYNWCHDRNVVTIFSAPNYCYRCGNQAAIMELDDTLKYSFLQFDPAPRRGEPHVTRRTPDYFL

inhibition, inactive:
O=C(O)c1n[nH]nc1-c1ccccc1O 0.275%
COc1ccccc1-c1n[nH]nc1C(=O)O 24.7%
COc1ccc(-c2n[nH]nc2C(=O)O)cc1 -5.38%
O=C(O)c1n[nH]nc1-c1ccccc1F 3.76%
O=C(O)c1n[nH]nc1-c1cccc(F)c1 1.89%
O=C(O)c1n[nH]nc1-c1ccc(F)cc1 -0.575%
COc1cccc(-c2n[nH]nc2C(=O)O)c1 3.7%
